Tests used:
CD4+ T cells = assay: Exogenous autologous healthy donor restimulation assay, TNFα and IFNγ production by CD4+ T cells; format: cell-based, human; design: Frequency (TNFα+ IFNγ+ CD4 T cells): unit not given here; details: donor independent, peptide pool 10 μg/mL, healthy donors; for Fold change (CD4+) vs. DMSO: maximum CD4+ T-cell response (TNFα and IFNγ); for Frequency (TNFα+ IFNγ+ CD4 T cells): maximum CD4+ T-cell response
How it was run: (§1)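 CD1c+ DCs from healthy donor PBMCs pulsed 2 h with 15-mer overlapping neoantigen peptide pools (10 μg/mL), irradiated 50 Gy, then co-cultured 12 days with autologous CD3+ T cells plus IL-15/IL-2. Restimulated day 11 with same pools, overnight with protein inhibitor; intracellular TNFα/IFNγ by flow. Positive: ≥3-fold over DMSO and ≥0.01% double-positive.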

CD8+ T cells = assay: Exogenous autologous healthy donor restimulation assay, TNFα and IFNγ production by CD8+ T cells; format: cell-based, human; design: Frequency (TNFα+ IFNγ+ CD8 T cells): unit not given here; details: for Fold change (CD8+) vs. DMSO: maximum CD8+ T-cell response (TNFα and IFNγ); for Fold change (CD8+) vs. DMSO / Frequency (TNFα+ IFNγ+ CD8 T cells): donor independent, peptide pool 10 μg/mL, healthy donors; for Frequency (TNFα+ IFNγ+ CD8 T cells): maximum CD8+ T-cell response; for Immunogenic (yes/no): positive if CD8+ and/or CD4+ double positive TNFα/IFNγ frequency >=3-fold over DMSO and at least 0.01%
How it was run: as §1

Sequence | Fold change (CD4+) vs. DMSO (CD4+ T cells) | Frequency (TNFα+ IFNγ+ CD4 T cells) (CD4+ T cells) | Fold change (CD8+) vs. DMSO (CD8+ T cells) | Frequency (TNFα+ IFNγ+ CD8 T cells) (CD8+ T cells) | Immunogenic (yes/no) (CD8+ T cells)
GFFETEMAVPFFSRKIRKVRRAIMKWTFCCYFY [AS118, alternative splicing, IARS] | 7.692 | 0.15 | 106.428 | 1.01 | Yes
FSQNMNTKMIRGTERKQQYYGLQILE [AS134, alternative splicing, XPO1] | 1.429 | 0.02 | 4.51 | 0.091 | Yes
NAVRSYYEGTENIVAV [FUS18, gene fusion CADPS2-> RNF148] | 0.95 | 0.005 | 542.51 | 0.671 | Yes
YECTGCKTSFPHRSQS [FUS46, gene fusion GCNA-> LOC101059915] | 9.3 | 0.017 | 143.71 | 1.33 | Yes
TVPASQKLSCSLDPKHLRQFHL [AS30, alternative splicing, BLNK] | 2.23 | 0.012 | 13.86 | 0.082 | Yes
KKEDVNFQVKQLIH [AS96, alternative splicing, ANKRD28] | 5.47 | 0.027 | 7.34 | 0.15 | Yes
SLLSLFPGKTVEITCLQHQKC [AS3, alternative splicing, BBS9] | 3.43 | 0.026 | 92.41 | 0.28 | Yes
SGLLMNTLTVLILYFLY [FUS9, gene fusion EAF2-> SLC15A2] | 3.08 | 0.031 | 5.53 | 0.13 | Yes
AAGVVTEIEAAVKA [FUS17, gene fusion HBS1L-> ALDH8A1] | 2.11 | 0.012 | 5.31 | 0.13 | Yes
PRDNHTDHENPRGSDGQGRWKCPSQVTYIRRTLM [FUS16, gene fusion UBE2J1-> GABRR2] | 4.388 | 0.027 | 8.86 | 0.12 | Yes
PKVFPKNQVISLIPKAQEDPEHT [AS127, alternative splicing, ST3GAL6] | 7.179 | 0.14 | 1.44 | 0.08 | Yes
